Test results published in the supplement of paper PMC10307832.

Legend:
Assay in all cases: relative viability (nuclei count vs DMSO), 5 days (fraction); higher = more cells survive
[1] = compound: CC1=CC(=CC=C1)NC2=NC(=CS2)C3=CC=NC=C3 + O=C(CCCCCCC(=O)Nc1ccccc1)NO [Vorinostat] (partner 1 µM)
Outline: (§1)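 Relative viability divides the nuclei count in treated wells by that in vehicle wells. Lung cancer cell lines were seeded in 1536-well plates, dosed by pin tool the next day, and fixed and stained after 5 days in one step with final 0.05% Triton X-100, 1% formaldehyde and 1 ug/ml Hoechst. Dosing was a single drug or a fixed anchor-drug dose plus five library-drug doses (not always all listed) in √10 steps, and values are medians of duplicate plates imaged at 4×.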

[2] = compound: Cc1ccc(NC(=O)c2ccc(CN3CCN(C)CC3)cc2)cc1Nc1nc(-c2cccnc2)cs1 [Masitinib] + Cc1nc(Nc2ncc(C(=O)Nc3c(C)cccc3Cl)s2)cc(N2CCN(CCO)CC2)n1 [Dasatinib] (partner 0.075 µM)
Outline: as §1

[3] = compound: Cc1ccc(NC(=O)c2ccc(CN3CCN(C)CC3)cc2)cc1Nc1nc(-c2cccnc2)cs1 [Masitinib] + O=C(CCCCCCC(=O)Nc1ccccc1)NO [Vorinostat] (partner 1 µM)
Outline: as §1

[4] = compound: Cc1ccc(NC(=O)c2ccc(CN3CCN(C)CC3)cc2)cc1Nc1nc(-c2cccnc2)cs1 [Masitinib] + Nc1ncn([C@H]2C[C@H](O)[C@@H](CO)O2)c(=O)n1 [Decitabine] (partner 2 µM)
Outline: as §1

Cell Line | relative viability ([1]; first compound 0.08 µM) | relative viability ([1]; first compound 0.253 µM) | relative viability ([1]; first compound 0.8 µM) | relative viability ([1]; first compound 2.53 µM) | relative viability ([1]; first compound 8 µM) | relative viability ([2]; first compound 0.01 µM) | relative viability ([2]; first compound 0.03162 µM) | relative viability ([2]; first compound 0.1 µM) | relative viability ([2]; first compound 0.3162 µM) | relative viability ([2]; first compound 1 µM) | relative viability ([3]; first compound 0.01 µM) | relative viability ([3]; first compound 0.03162 µM) | relative viability ([3]; first compound 0.1 µM) | relative viability ([3]; first compound 0.3162 µM) | relative viability ([3]; first compound 1 µM) | relative viability ([4]; first compound 0.01 µM) | relative viability ([4]; first compound 0.03162 µM) | relative viability ([4]; first compound 0.1 µM) | relative viability ([4]; first compound 0.3162 µM) | relative viability ([4]; first compound 1 µM)
NCI-H838 | 0.64 | 0.599 | 0.628 | 0.582 | 0.524 | 0.304 | 0.258 | 0.344 | 0.266 | 0.229 | 0.7 | 0.664 | 0.773 | 0.639 | 0.703 | 0.446 | 0.475 | 0.432 | 0.445 | 0.44
NCI-H2126 | 0.579 | 0.717 | 0.711 | 0.735 | 0.74 | 0.681 | 0.537 | 0.653 | 0.369 | 0.525 | 0.736 | 0.764 | 0.8 | 0.798 | 0.79 | 0.58 | 0.499 | 0.586 | 0.505 | 0.567
BEN | 0.566 | 0.572 | 0.503 | 0.536 | 0.595 | 0.341 |  | 0.271 | 0.308 | 0.281 | 0.616 | 0.533 | 0.557 | 0.528 | 0.557 | 0.727 | 0.739 | 0.753 | 0.699 | 0.728
LCLC-103H | 0.635 | 0.69 | 0.679 | 0.667 | 0.567 | 0.41 | 0.467 | 0.462 | 0.437 | 0.445 |  | 0.778 | 0.666 | 0.778 | 0.761 |  | 0.723 | 0.735 | 0.748 | 0.711
EKVX | 0.31 | 0.585 | 0.507 | 0.488 | 0.502 | 0.557 | 0.387 | 0.535 | 0.464 | 0.41 | 0.626 | 0.653 | 0.643 | 0.678 | 0.696 | 0.342 | 0.31 | 0.35 |  | 0.541
ABC-1 | 0.944 |  | 1.44 | 0.963 | 0.377 | 0.58 | 0.588 | 0.629 | 0.428 | 0.521 | 1.05 | 0.997 | 1.44 | 1.15 | 0.877 | 1.02 | 1.14 | 1.24 | 1.06 | 0.865
NCI-H661 | 0.764 | 0.753 | 0.747 | 0.718 | 0.666 | 0.883 | 1.03 | 1.04 | 0.795 | 0.658 | 0.785 | 0.801 | 0.774 | 0.805 | 0.821 | 0.502 | 0.552 | 0.515 | 0.535 | 0.545
NCI-H1651 | 0.562 | 0.547 | 0.569 | 0.464 | 0.596 | 0.403 | 0.469 | 0.443 | 0.383 | 0.419 | 0.577 | 0.543 | 0.56 | 0.529 | 0.55 | 0.551 | 0.674 | 0.595 | 0.598 | 0.584
NCI-H2087 | 0.615 | 0.725 | 0.762 | 0.574 | 0.708 | 0.922 | 0.927 | 1.01 | 0.775 | 0.788 | 0.532 | 0.828 | 0.672 | 0.72 | 0.746 | 0.25 | 0.247 | 0.32 | 0.223 | 0.254
NCI-H1944 | 0.364 | 0.489 | 0.529 | 0.366 | 0.408 |  | 0.204 |  | 0.215 | 0.213 |  | 0.528 |  | 0.547 | 0.5 |  | 0.398 |  | 0.423 | 0.384
LC-2-ad | 0.607 | 0.647 | 0.688 | 0.624 | 0.658 | 0.47 | 0.587 | 0.639 | 0.523 | 0.554 | 0.546 | 0.666 | 0.584 | 0.694 | 0.718 | 0.837 | 0.795 | 0.85 | 0.795 | 0.894
COR-L 105 | 0.831 | 0.776 | 0.724 | 0.724 | 0.818 | 0.37 | 0.338 | 0.305 | 0.288 | 0.286 | 0.741 | 1.09 | 0.971 | 0.78 | 0.841 | 0.617 | 0.658 | 0.619 | 0.61 | 0.639
NCI-H1437 | 0.722 | 0.732 | 0.611 | 0.718 | 0.362 | 0.457 | 0.396 | 0.454 | 0.527 | 0.387 | 0.798 | 0.799 | 0.932 | 0.789 | 0.75 | 0.559 | 0.565 | 0.582 | 0.524 | 0.527
H3255 | 0.758 | 0.723 | 0.65 | 0.666 | 0.717 | 0.335 | 0.363 | 0.336 | 0.349 | 0.339 | 0.9 | 0.9 | 0.544 | 0.584 | 0.761 | 0.488 | 0.67 | 0.439 | 0.626 | 0.534
NCI-H2009 | 0.624 | 0.664 | 0.593 | 0.642 | 0.7 | 0.291 | 0.284 | 0.324 | 0.283 | 0.244 | 0.664 | 0.772 | 0.69 | 0.654 | 0.602 | 0.368 | 0.332 | 0.409 | 0.406 | 0.371
NCI-H1755 | 0.621 | 0.761 | 0.726 | 0.611 | 0.605 |  | 0.455 | 0.451 | 0.422 | 0.383 | 0.617 | 0.732 | 0.647 | 0.758 | 0.693 | 0.612 | 0.711 | 0.733 | 0.709 | 0.647
HOP-62 | 0.531 | 0.605 | 0.591 | 0.584 | 0.595 | 0.604 | 0.632 | 0.785 | 0.634 | 0.606 | 0.588 | 0.573 | 0.681 | 0.746 | 0.687 | 0.22 | 0.222 | 0.23 | 0.201 | 0.212
